{"source": "patent US20210353593A1", "about": "(Chinook Therapeutics, Inc., priority 2019, published 2021)", "key": {"[1]": {"system": "canonical signaling pathways in kidney tissue of g-ddY mice", "experiment": "Ingenuity Pathway Analysis (IPA) canonical pathways, g-ddY mouse kidney RNA-seq", "type": "in vivo"}, "ET-1 stimulated HRMC": {"system": "ET-1 stimulated HRMC", "experiment": "Hallmark gene set enrichment in ET-1 stimulated HRMC treated with atrasentan", "type": "cell-based, human", "details": "atrasentan at 1 nM and 25 nM"}, "[2]": {"details": "patients with diabetic kidney disease; cited from earlier work"}}}
{"molecule": "CCCCN(CCCC)C(=O)CN1C[C@H](c2ccc3c(c2)OCO3)[C@@H](C(=O)O)[C@@H]1c1ccc(OC)cc1", "note": "[Atrasentan, (2R,3R,4S)-4-(1,3-benzodioxol-5-yl)-1-[2-(dibutylamino)-2-oxoethyl]-2-(4-methoxyphenyl)pyrrolidine-3-carboxylic acid]", "values": [{"measurement": "IL-8 Signaling z-score", "setting": "[1]; 20 mg/kg/day", "result": "−0.905"}, {"measurement": "Integrin Signaling z-score", "setting": "[1]; 20 mg/kg/day", "result": "−1.342"}, {"measurement": "LPS/IL-1 Mediated Inhibition of RXR Function z-score", "setting": "[1]; 20 mg/kg/day", "result": 0.626}, {"measurement": "Lymphotoxin β Receptor Signaling z-score", "setting": "[1]; 20 mg/kg/day", "result": "−1.291"}, {"measurement": "Macropinocytosis Signaling z-score", "setting": "[1]; 20 mg/kg/day", "result": 0.243}, {"measurement": "NF-κB Activation by Viruses z-score", "setting": "[1]; 20 mg/kg/day", "result": "−0.816"}, {"measurement": "NF-κB Signaling z-score", "setting": "[1]; 20 mg/kg/day", "result": "−1.313"}, {"measurement": "NRF2-mediated Oxidative Stress Response z-score", "setting": "[1]; 20 mg/kg/day", "result": "−0.392"}, {"measurement": "Oxidative Phosphorylation z-score", "setting": "[1]; 20 mg/kg/day", "result": "−0.283"}, {"measurement": "PDGF Signaling z-score", "setting": "[1]; 20 mg/kg/day", "result": "−2.353"}, {"measurement": "PEDF Signaling z-score", "setting": "[1]; 20 mg/kg/day", "result": "−1.043"}, {"measurement": "PI3K Signaling in B Lymphocytes z-score", "setting": "[1]; 20 mg/kg/day", "result": "−1.333"}, {"measurement": "PI3K/AKT Signaling z-score", "setting": "[1]; 20 mg/kg/day", "result": "−0.18"}, {"measurement": "PTEN Signaling z-score", "setting": "[1]; 20 mg/kg/day", "result": 1.029}, {"measurement": "Paxillin Signaling z-score", "setting": "[1]; 20 mg/kg/day", "result": "−0.626"}, {"measurement": "Relaxin Signaling z-score", "setting": "[1]; 20 mg/kg/day", "result": "−0.853"}, {"measurement": "STAT3 Pathway z-score", "setting": "[1]; 20 mg/kg/day", "result": 0.192}, {"measurement": "Sirtuin Signaling Pathway z-score", "setting": "[1]; 20 mg/kg/day", "result": 0.62}, {"measurement": "Small Cell Lung Cancer Signaling z-score", "setting": "[1]; 20 mg/kg/day", "result": "−1.886"}, {"measurement": "Sperm Motility z-score", "setting": "[1]; 20 mg/kg/day", "result": 1.633}, {"measurement": "Sphingosine-1-phosphate Signaling z-score", "setting": "[1]; 20 mg/kg/day", "result": "−0.73"}, {"measurement": "TCA Cycle II (Eukalyotic) z-score", "setting": "[1]; 20 mg/kg/day", "result": "−0.535"}, {"measurement": "TNFR2 Signaling z-score", "setting": "[1]; 20 mg/kg/day", "result": 0}, {"measurement": "Thrombin Signaling z-score", "setting": "[1]; 20 mg/kg/day", "result": "−0.926"}, {"measurement": "Toll-like Receptor Signaling z-score", "setting": "[1]; 20 mg/kg/day", "result": "−0.258"}, {"measurement": "Tryptophan Degradation III (Eukalyotic) z-score", "setting": "[1]; 20 mg/kg/day", "result": "−1.265"}, {"measurement": "Xenobiotic Metabolism General Signaling Pathway z-score", "setting": "[1]; 20 mg/kg/day", "result": "−1.581"}, {"measurement": "Acute Myeloid Leukemia Signaling z-score", "setting": "[1]; 30 mg/kg/day", "result": "−1.134"}, {"measurement": "Acute Phase Response Signaling z-score", "setting": "[1]; 30 mg/kg/day", "result": "−2.832"}, {"measurement": "Apelin Cardiac Fibroblast Signaling Pathway z-score", "setting": "[1]; 30 mg/kg/day", "result": 1.732}, {"measurement": "CXCR4 Signaling z-score", "setting": "[1]; 30 mg/kg/day", "result": "−2.214"}, {"measurement": "Cardiac Hypertrophy Signaling (Enhanced) z-score", "setting": "[1]; 30 mg/kg/day", "result": "−6.236"}, {"measurement": "Folate Polyglutamylation z-score", "setting": "[1]; 30 mg/kg/day", "result": 1.342}, {"measurement": "GM-CSF Signaling z-score", "setting": "[1]; 30 mg/kg/day", "result": "−1.225"}, {"measurement": "GP6 Signaling Pathway z-score", "setting": "[1]; 30 mg/kg/day", "result": "−4.938"}, {"measurement": "Glioblastoma Multiforme Signaling z-score", "setting": "[1]; 30 mg/kg/day", "result": "−3.464"}, {"measurement": "Glioma Signaling z-score", "setting": "[1]; 30 mg/kg/day", "result": "−2.353"}, {"measurement": "Gluconeogenesis I z-score", "setting": "[1]; 30 mg/kg/day", "result": 3.464}, {"measurement": "Glutathione Redox Reactions I z-score", "setting": "[1]; 30 mg/kg/day", "result": 2.496}, {"measurement": "Glycolysis I z-score", "setting": "[1]; 30 mg/kg/day", "result": 3.051}, {"measurement": "Gα12/13 Signaling z-score", "setting": "[1]; 30 mg/kg/day", "result": "−0.949"}, {"measurement": "Gαg Signaling z-score", "setting": "[1]; 30 mg/kg/day", "result": "−2.16"}, {"measurement": "HGF Signaling z-score", "setting": "[1]; 30 mg/kg/day", "result": "−3.182"}, {"measurement": "Hepatic Fibrosis Signaling Pathway z-score", "setting": "[1]; 30 mg/kg/day", "result": "−5.058"}, {"measurement": "IGF-1 Signaling z-score", "setting": "[1]; 30 mg/kg/day", "result": "−1.633"}, {"measurement": "IL-6 signaling", "setting": "[1]; 30 mg/kg/day", "result": "reduced"}, {"measurement": "IL-8 Signaling z-score", "setting": "[1]; 30 mg/kg/day", "result": "−2.828"}, {"measurement": "Integrin Signaling z-score", "setting": "[1]; 30 mg/kg/day", "result": "−3.311"}, {"measurement": "LPS/IL-1 Mediated Inhibition of RXR Function z-score", "setting": "[1]; 30 mg/kg/day", "result": "−2.746"}, {"measurement": "Lymphotoxin β Receptor Signaling z-score", "setting": "[1]; 30 mg/kg/day", "result": "−2.183"}, {"measurement": "Macropinocytosis Signaling z-score", "setting": "[1]; 30 mg/kg/day", "result": "−2.828"}, {"measurement": "NF-κB Activation by Viruses z-score", "setting": "[1]; 30 mg/kg/day", "result": "−3.9"}, {"measurement": "NF-κB Signaling z-score", "setting": "[1]; 30 mg/kg/day", "result": "−4.636"}, {"measurement": "NF-κB signaling", "setting": "[1]; 30 mg/kg/day", "result": "reduced"}, {"measurement": "NRF2-mediated Oxidative Stress Response z-score", "setting": "[1]; 30 mg/kg/day", "result": 1.3}, {"measurement": "Oxidative Phosphorylation z-score", "setting": "[1]; 30 mg/kg/day", "result": 7.02}, {"measurement": "PDGF Signaling z-score", "setting": "[1]; 30 mg/kg/day", "result": "−3.528"}, {"measurement": "PDGF signaling", "setting": "[1]; 30 mg/kg/day", "result": "reduced"}, {"measurement": "PEDF Signaling z-score", "setting": "[1]; 30 mg/kg/day", "result": "−3.922"}, {"measurement": "PI3K Signaling in B Lymphocytes z-score", "setting": "[1]; 30 mg/kg/day", "result": "−4.041"}, {"measurement": "PI3K/AKT Signaling z-score", "setting": "[1]; 30 mg/kg/day", "result": "−1.947"}, {"measurement": "PTEN Signaling z-score", "setting": "[1]; 30 mg/kg/day", "result": 2.214}, {"measurement": "Paxillin Signaling z-score", "setting": "[1]; 30 mg/kg/day", "result": "−2.268"}, {"measurement": "Relaxin Signaling z-score", "setting": "[1]; 30 mg/kg/day", "result": "−2.449"}, {"measurement": "STAT3 Pathway z-score", "setting": "[1]; 30 mg/kg/day", "result": "−2.556"}, {"measurement": "Sirtuin Signaling Pathway z-score", "setting": "[1]; 30 mg/kg/day", "result": "−1.254"}, {"measurement": "Small Cell Lung Cancer Signaling z-score", "setting": "[1]; 30 mg/kg/day", "result": "−2.236"}, {"measurement": "Sperm Motility z-score", "setting": "[1]; 30 mg/kg/day", "result": "−2.263"}, {"measurement": "Sphingosine-1-phosphate Signaling z-score", "setting": "[1]; 30 mg/kg/day", "result": "−1.808"}, {"measurement": "TCA Cycle II (Eukalyotic) z-score", "setting": "[1]; 30 mg/kg/day", "result": 3.207}, {"measurement": "TNFR2 Signaling z-score", "setting": "[1]; 30 mg/kg/day", "result": "−1.291"}, {"measurement": "Thrombin Signaling z-score", "setting": "[1]; 30 mg/kg/day", "result": "−2.828"}, {"measurement": "Toll-like Receptor Signaling z-score", "setting": "[1]; 30 mg/kg/day", "result": "−2.982"}, {"measurement": "Tryptophan Degradation III (Eukalyotic) z-score", "setting": "[1]; 30 mg/kg/day", "result": 3.742}, {"measurement": "Xenobiotic Metabolism General Signaling Pathway z-score", "setting": "[1]; 30 mg/kg/day", "result": "−0.152"}, {"measurement": "hallmark gene set enrichment in HRMC model", "setting": "ET-1 stimulated HRMC", "result": "under-expression of hallmark gene sets"}, {"measurement": "risk of renal events (doubling of serum creatinine or end-stage kidney disease)", "setting": "[2]", "result": "significantly reducing the risk of renal events"}]}
